Test results as given in patent US20060106048A1, “Furoisoquinoline derivative and use thereof” (priority 2002, published 2006).
pIC50: −log10 of the molar value. Structures can show the parent of a compound that is named as a salt.

target: T1, recombinant human brain-derived phosphodiesterase 4D3 (Homo sapiens, UniProt Q08499); experiment: Assay of phosphodiesterase IV-inhibiting action (SPA, [3H]cAMP); assay type: biochemical; settings: recombinant human brain-derived phosphodiesterase 4D3, [3H]cAMP, 30 minutes at 30° C.; activity without compound = 100%; read-out: Phosphodiesterase 4D inhibiting action (IC50)
T1 construct: GST; made in house; host or cells: Escherichia coli BL21/pPDE4D3 (FERM BP-7075)
Excerpt: Assay of Phosphodiesterase IV-Inhibiting Action
(1) Expression of Recombinant Human Brain-Derived Phosphodiesterase 4D3 in Escherichia coli and Purification Thereof.
Using the Escherichia coli BL21/pPDE4D3 (FERM BP-7075) producing recombinant human brain-derived phosphodiesterase 4D3, a recombinant human brain-derived phosphodiesterase 4D3 was obtained. The expression and purification of E. coli were in accordance with the protocol attached to GST Gene Fusion System (Pharmacia).
(2) Assay of Phosphodiesterase IV-Inhibiting Action
To a 96-well plate (OPTI plate, Packard), 10 μl of a buffer solution [0.5 M Tris-HCl (pH 7.5), 83 mM MgCl2, 17 mM EGTA], 10 μl of the recombinant human brain-derived phosphodiesterase 4D3 (0.0034 mg/ml) obtained in Section (1) described above, 65 μl of Ultrapure water, 5 μl of an inhibitor sample and 10 μl of [^3H] cAMP were added and reacted for 30 minutes at 30° C. After completing the reaction, 50 μl of SPA beads solution [18 mg/ml Yttrium silicate beads, 18 mM ZnSO4] was added thereto, and the mixture was allowed to stand at room temperature for about 20 minutes. The radioactivity was counted using a scintillation counter (Topcount, Packard). Inhibiting activity of the compound against recombinant human brain-derived phosphodiesterase 4D3 was calculated, based on that enzymatic activity under absence of the compound was 100%.

T1 sequence (Q08499 1-673 isoform Q08499-2): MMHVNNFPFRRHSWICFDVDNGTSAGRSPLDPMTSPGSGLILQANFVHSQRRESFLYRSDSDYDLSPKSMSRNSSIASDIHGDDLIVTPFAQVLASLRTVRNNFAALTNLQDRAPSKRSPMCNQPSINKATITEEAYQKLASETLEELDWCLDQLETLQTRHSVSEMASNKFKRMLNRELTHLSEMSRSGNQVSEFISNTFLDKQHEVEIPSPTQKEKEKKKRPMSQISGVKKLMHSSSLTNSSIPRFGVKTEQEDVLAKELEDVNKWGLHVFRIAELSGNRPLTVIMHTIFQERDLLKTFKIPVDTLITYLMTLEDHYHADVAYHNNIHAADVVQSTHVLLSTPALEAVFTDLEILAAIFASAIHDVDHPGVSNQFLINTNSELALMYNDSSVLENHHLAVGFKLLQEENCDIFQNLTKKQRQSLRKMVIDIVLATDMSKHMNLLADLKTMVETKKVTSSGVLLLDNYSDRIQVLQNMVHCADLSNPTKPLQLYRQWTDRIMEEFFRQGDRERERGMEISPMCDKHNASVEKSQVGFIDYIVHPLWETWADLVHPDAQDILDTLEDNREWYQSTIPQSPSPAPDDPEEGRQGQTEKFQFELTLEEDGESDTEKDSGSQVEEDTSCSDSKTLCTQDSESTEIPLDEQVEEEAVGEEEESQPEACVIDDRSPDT

pIC50	SMILES
8.08	CCNc1cc(C2=NC(C)(C)Cc3cc(OCC)c4c(c32)CC(C)(C)O4)ccc1C(=O)O [Example 50, 4-(6-Ethoxy-3,4,8,9-tetrahydro-3,3,8,8-tetramethylfuro[2,3-h]isoquinolin-1-yl)-2-(ethylamino)benzoic acid]
7.94	CCOc1cc2c(c3c1OC(C)(C)C3)C(c1ccc(C(C)(C)C(=O)O)cc1)=NC(C)(C)C2 [Example 118, 4-(6-Ethoxy-3,4,8,9-tetrahydro-3,3,8,8-tetramethylfuro[2,3-h]isoquinolin-1-yl)-α,α-dimethylbenzeneacetic acid hydrochloride hydrate]
8.40	CCOc1cc2c(c3c1OC(C)(C)C3)C(c1ccc(C(=O)OC)c(NC(C)=O)c1)=NC(C)(C)C2 [Example 17, Methyl 2-(acetylamino)-4-(6-ethoxy-3,4,8,9-tetrahydro-3,3,8,8-tetramethylfuro[2,3-h]isoquinolin-1-yl)benzoate]
8.79	CCOc1cc2c(c3c1OC(C)(C)C3)C(c1ccc(C(=O)NC)c(NC(=O)c3ccccc3)c1)=NC(C)(C)C2 [Example 57, 2-(Benzoylamino)-4-(6-ethoxy-3,4,8,9-tetrahydro-3,3,8,8-tetramethylfuro[2,3-h]isoquinolin-1-yl)-N-methylbenzamide]
8.77	CCOc1cc2c(c3c1OC(C)(C)C3)C(c1ccc(C#N)c(NCc3ccccc3)c1)=NC(C)(C)C2 [Example 74, 4-(6-Ethoxy-3,4,8,9-tetrahydro-3,3,8,8-tetramethylfuro[2,3-h]isoquinolin-1-yl)-2-[(phenylmethyl)amino]benzonitrile]
8.72	CCOc1cc2c(c3c1OC(C)(C)C3)C(c1ccc(C(=O)OC)c(NC(=O)c3ccccn3)c1)=NC(C)(C)C2 [Example 21, Methyl 4-(6-ethoxy-3,4,8,9-tetrahydro-3,3,8,8-tetramethylfuro[2,3-]isoquinolin-1-yl)-2-[(2-pyridinylcarbonyl)amino]benzoate]
8.46	CCOc1cc2c(c3c1OC(C)(C)C3)C(c1ccc(C(C)(C)C(N)=O)cc1)=NC(C)(C)C2 [Example 120, 4-(6-Ethoxy-3,4,8,9-tetrahydro-3,3,8,8-tetramethylfuro[2,3-h]isoquinolin-1-yl)-α,α-dimethylbenzeneacetamide]
9.12	CCOc1cc2c(c3c1OC(C)(C)C3)C(c1ccc(C(N)=O)c(NC(=O)c3ccccn3)c1)=NC(C)(C)C2 [Example 23, N-[2-(Aminocarbonyl)-5-(6-ethoxy-3,4,8,9-tetrahydro-3,3,8,8-tetramethylfuro[2,3-h]isoquinolin-1-yl)phenyl]-2-pyridinecarboxamide]
8.49	CCOc1cc2c(c3c1OC(C)(C)C3)C(c1ccc(COCC(=O)OC)cc1)=NC(C)(C)C2 [Example 94, Methyl [[4-(6-ethoxy-3,4,8,9-tetrahydro-3,3,8,8-tetramethylfuro[2,3-h]isoquinolin-1-yl)phenyl]methoxy]acetate hydrochloride]
9.20	CCOc1cc2c(c3c1OC(C)(C)C3)C(c1ccc(CC(=O)O)c(NC(=O)c3ccccn3)c1)=NC(C)(C)C2 [Example 124, 4-(6-Ethoxy-3,4,8,9-tetrahydro-3,3,8,8-tetramethylfuro[2,3-h]isoquinolin-1-yl)-2-[(2-pyridinylcarbonyl)amino]benzeneacetic acid]
9.12	CCOc1cc2c(c3c1OC(C)(C)C3)C(c1ccc(C(=O)O)c(NC(=O)c3ccc4ccccc4n3)c1)=NC(C)(C)C2 [Example 30, 4-(6-Ethoxy-3,4,8,9-tetrahydro-3,3,8,8-tetramethylfuro[2,3-h]isoquinolin-1-yl)-2-[(2-quinolinylcarbonyl)amino]benzoic acid]
7.96	CCOc1cc2c(c3c1OC(C)(C)C3)C(c1ccc(COCC(=O)O)cc1)=NC(C)(C)C2 [Example 95, [[4-(6-Ethoxy-3,4,8,9-tetrahydro-3,3,8,8-tetramethylfuro[2,3-h]isoquinolin-1-yl)phenyl]methoxy]acetic acid hydrochloride]
9.25	CCOc1cc2c(c3c1OC(C)(C)C3)C(c1ccc(C(=O)O)c(NCc3ccccc3)c1)=NC(C)(C)C2 [Example 6, 4-(6-Ethoxy-3,4,8,9-tetrahydro-3,3,8,8-tetramethylfuro[2,3-h]isoquinolin-1-yl)-2-[(phenylmethyl)amino]benzoic acid]
8.26	CCOc1cc2c(c3c1OC(C)(C)C3)C(c1ccc(/C=C/C(=O)O)c(OC)c1)=NC(C)(C)C2 [Example 85, (E)-3-[4-(6-Ethoxy-3,4,8,9-tetrahydro-3,3,8,8-tetramethylfuro[2,3-h]isoquinolin-1-yl)-2-methoxyphenyl]-2-propenoic acid]
